According to US4179516A, “Ethers of 3,4-dihydro-1-benzoxepin-5-one oxime to treat intestinal disorders” (Albert Rolland, S.A., priority 1973, dated 1979):
Like-named read-outs stand apart in the source and are kept apart here.

Legend:
[1] = test system: rat duodenum; experiment: Relaxant activity in vitro on isolated organ: decontraction (rat duodenum); conditions: Tyrode solution, 37° C.
Method: (§1) The tests were carried out on acid addition salts of the amines of the general formula.
(§2) For tests on the isolated organ: An organ fragment of rat duodenum or guinea pig ileum is kept alive in 50 ml of oxygenated and thermostatically controlled (37° C.) Tyrode solution. The activity of the compounds is tested on the spontaneous movements of the organ and the contractions produced by the addition of solution of barium chloride or acetyl choline to the bath. The movements were recorded on a DMP 4A Roucaire physiograph.

[2] = test system: guinea pig ileum; experiment: Relaxant activity in vitro on isolated organ: anti-acetylcholine (guinea pig ileum); conditions: Tyrode solution, 37° C., acetyl choline
Method: as §1, §2

[3] = in vivo; conditions: mouse, male Swiss C.D. mice, acid addition salts
Method: as §1
The acute toxicity was determined in male Swiss C.D. mice weighing an average of 20 grammes, after oral administration (P.O) and intravenous administration (I.V.).

[4] = test system: smooth intestinal muscle fibre (terminal part of the duodenum); experiment: In vivo relaxant activity on smooth intestinal muscle in the anaesthetised (chloralosed) dog, balloon in terminal duodenum; conditions: 2 mg/kg intravenously, compared with atropine
Method: as §1
For the in vivo tests: a balloon is introduced into the chloralosed animal at the level of the terminal part of the duodenum and the intestinal movements are recorded on a Beckman polygraph with the acid of Statham PM 97 gauge.

[5] = according to the authors of Collection Czechoslov. Chem. Common 37 868-886 (1972); cited from earlier work
[6] = intravenous, read-out: Toxicity in mice LD50 I.V
[7] = oral, read-out: Toxicity in mice LD50 P.O.

Compound	Minimum active dose concentration, Decontraction (rat duodenum) [1]	Minimum active dose concentration, Anti-Acetyl-Cholire (guinea pig ileum) [2] [µg/mL]	LD50 [3, 6] [mg/kg]	LD50 [3, 7] [mg/kg]	effect as regards the reduction in muscle tone and intestinal peristalsis [4]	spasmolytic action [5]
CN1[C@@H]2CC[C@H]1C[C@@H](OC(=O)C(CO)c1ccccc1)C2 (stereo partly shown) [ATROPINE, reference compound]	inactive	0.006	–	–	–	–
CN(C)CCON=C1CCCOc2ccc(Cl)cc21 [Example 1, 7-chloro-3,4-dihydro-1-benzoxepin-O-(dimethylaminoethyl)-5-one oxime]	0.06 µg/mL	5.5	32	150	comparable with or even superior to that of atropine	–
COc1ccc2c(c1)C(=NOCCN(C)C)CCCO2 [Example 9, 7-methoxy-3,4-dihydro-1-benzoxepin-O-(dimethylaminoethyl)-5-one oxime]	0.12 µg/mL	1.5	35	500	–	–
CN(C)CCCON=C1CCCOc2ccc(Cl)cc21 [Example 8, 7-chloro-3,4-dihydro-1-benzoxepin-O-(dimethylaminopropyl)-5-one oxime]	0.12 µg/mL	3.5	60	500	comparable with or even superior to that of atropine	–
Clc1ccc2c(c1)C(=NOCCN1CCCC1)CCCO2 [Example 7, 7-chloro-3,4-dihydro-1-benzoxepin-O-(1-pyrrolidinyl-ethyl)-5-one oxime]	1.5 µg/mL	1.3	35	450	comparable with or even superior to that of atropine	–
Clc1ccc2c(c1)C(=NOCCN1CCOCC1)CCCO2 [Example 6, 7-chloro-3,4-dihydro-1-benzoxepin-O-(morpholinoethyl)-5-one oxime]	0.15 µg/mL	5.5	120	> 1000	–	–
CN(C)CCON=C1CCCOc2cc(Cl)ccc21	–	–	–	–	–	weak spasmolytic action
CCN(CC)CCON=C1CCCOc2ccc(Br)cc21 [Example 12, 7-bromo-3,4-dihydro-1-benzoxepin-O-(diethylaminoethyl)-5-one oxime]	0.1 µg/mL	1	40	250	comparable with or even superior to that of atropine	–
CCN(CC)CCON=C1CCCOc2ccc(OC)cc21 [Example 10, 7-methoxy-3,4-dihydro-1-benzoxepin-O-(diethylaminoethyl)-5-one oxime]	0.5 µg/mL	0.5	45	450	–	–
COc1ccc2c(c1)C(=NOCCCN(C)C)CCCO2 [Example 11]	0.3 µg/mL	2.0	–	> 1000	–	–
CCN(CC)CCO/N=C1/CCCOc2ccc(Cl)cc21 [Example 2, 7-chloro-3,4-dihydro-1-benzoxepin-O-(diethylaminoethyl)-5-one oxime: isomer with the cis configuration in relation to the benzene nucleus]	0.1 µg/mL	1	37	420	comparable with or even superior to that of atropine	–
